Test results reported in ChEMBL document CHEMBL4420080, “Inhibitors of sox18 protein activity for treating angiogenesis- and/or lymphangiogenesis-related diseases” (2018).
The source made the active and inactive calls. The rule behind the calls is not given here.

What was measured:
4T1.2 [1] = test: Antitumor activity against mouse 4T1.2 cells implanted in BALB/c mouse assessed as median disease latency time at 5 to 50 mg/kg/day for 10 days and measured up to 60 days after tumor inoculation; format: functional, organism-based
[2] = biological target: D(1A) dopamine receptor (Homo sapiens) (UniProt P21728); test: Inhibition of human dopamine D1 receptor at 10 uM relative to control
D(1A) dopamine receptor (Homo sapiens), sequence (P21728 whole entry): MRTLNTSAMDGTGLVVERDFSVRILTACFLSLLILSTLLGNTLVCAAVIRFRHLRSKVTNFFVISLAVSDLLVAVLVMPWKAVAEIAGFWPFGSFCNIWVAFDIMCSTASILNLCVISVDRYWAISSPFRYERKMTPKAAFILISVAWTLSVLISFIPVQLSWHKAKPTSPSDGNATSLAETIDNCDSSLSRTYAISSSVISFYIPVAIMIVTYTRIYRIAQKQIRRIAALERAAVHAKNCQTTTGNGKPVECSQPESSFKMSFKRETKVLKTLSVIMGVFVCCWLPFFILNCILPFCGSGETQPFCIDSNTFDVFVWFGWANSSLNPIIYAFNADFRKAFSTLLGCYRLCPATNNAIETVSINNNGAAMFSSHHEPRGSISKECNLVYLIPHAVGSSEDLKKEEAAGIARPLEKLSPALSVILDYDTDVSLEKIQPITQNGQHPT

[3] = biological target: Histamine H1 receptor (Homo sapiens) (UniProt P35367); test: Inhibition of human histamine H1 receptor at 10 uM relative to control
Histamine H1 receptor (Homo sapiens), sequence (P35367 whole entry): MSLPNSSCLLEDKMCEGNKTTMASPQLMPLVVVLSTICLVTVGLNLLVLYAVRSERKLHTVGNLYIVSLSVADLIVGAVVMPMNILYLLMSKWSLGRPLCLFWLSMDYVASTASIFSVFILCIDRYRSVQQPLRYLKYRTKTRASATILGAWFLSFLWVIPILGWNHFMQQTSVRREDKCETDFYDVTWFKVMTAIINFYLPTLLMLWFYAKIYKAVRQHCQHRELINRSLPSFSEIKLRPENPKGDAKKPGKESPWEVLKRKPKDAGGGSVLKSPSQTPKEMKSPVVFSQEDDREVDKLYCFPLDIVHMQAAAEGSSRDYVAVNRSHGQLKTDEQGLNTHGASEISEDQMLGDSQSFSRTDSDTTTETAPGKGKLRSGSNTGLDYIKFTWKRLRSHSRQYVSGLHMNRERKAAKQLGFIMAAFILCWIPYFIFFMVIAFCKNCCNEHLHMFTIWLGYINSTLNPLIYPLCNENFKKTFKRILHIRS

[4] = biological target: Muscarinic acetylcholine receptor M2 (Homo sapiens) (UniProt P08172); test: Inhibition of human muscarinic M2 receptor at 10 uM relative to control
Muscarinic acetylcholine receptor M2 (Homo sapiens), sequence (P08172 whole entry): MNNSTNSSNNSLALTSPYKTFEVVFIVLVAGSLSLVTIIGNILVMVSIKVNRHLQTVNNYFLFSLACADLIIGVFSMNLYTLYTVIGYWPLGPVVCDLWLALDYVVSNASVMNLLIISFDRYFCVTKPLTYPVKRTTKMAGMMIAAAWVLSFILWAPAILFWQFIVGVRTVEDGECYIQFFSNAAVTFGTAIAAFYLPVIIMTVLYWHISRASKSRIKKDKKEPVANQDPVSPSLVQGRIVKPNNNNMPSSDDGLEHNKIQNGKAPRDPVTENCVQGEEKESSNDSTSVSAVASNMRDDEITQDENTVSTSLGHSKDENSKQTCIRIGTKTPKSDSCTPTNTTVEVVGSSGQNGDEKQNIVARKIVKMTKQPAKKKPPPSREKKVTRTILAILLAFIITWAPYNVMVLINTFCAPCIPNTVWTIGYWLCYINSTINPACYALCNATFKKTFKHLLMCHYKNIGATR

[5] = biological target: GABA-A receptor; anion channel (Rattus norvegicus) (UniProt O09028+P15431+P18506+P18508+P19969+P20236+P23574+P23576+P28471+P28473+P30191+P62813+P63079+P63138+Q91ZM7+Q9ES14); test: Inhibition of rat GABAA channel muscimol binding site at 10 uM relative to control; format: protein-complex assay
[6] = biological target: Sodium-dependent noradrenaline transporter (Homo sapiens) (UniProt P23975); test: Inhibition of human NET at 10 uM relative to control
Sodium-dependent noradrenaline transporter (Homo sapiens), sequence (P23975 whole entry): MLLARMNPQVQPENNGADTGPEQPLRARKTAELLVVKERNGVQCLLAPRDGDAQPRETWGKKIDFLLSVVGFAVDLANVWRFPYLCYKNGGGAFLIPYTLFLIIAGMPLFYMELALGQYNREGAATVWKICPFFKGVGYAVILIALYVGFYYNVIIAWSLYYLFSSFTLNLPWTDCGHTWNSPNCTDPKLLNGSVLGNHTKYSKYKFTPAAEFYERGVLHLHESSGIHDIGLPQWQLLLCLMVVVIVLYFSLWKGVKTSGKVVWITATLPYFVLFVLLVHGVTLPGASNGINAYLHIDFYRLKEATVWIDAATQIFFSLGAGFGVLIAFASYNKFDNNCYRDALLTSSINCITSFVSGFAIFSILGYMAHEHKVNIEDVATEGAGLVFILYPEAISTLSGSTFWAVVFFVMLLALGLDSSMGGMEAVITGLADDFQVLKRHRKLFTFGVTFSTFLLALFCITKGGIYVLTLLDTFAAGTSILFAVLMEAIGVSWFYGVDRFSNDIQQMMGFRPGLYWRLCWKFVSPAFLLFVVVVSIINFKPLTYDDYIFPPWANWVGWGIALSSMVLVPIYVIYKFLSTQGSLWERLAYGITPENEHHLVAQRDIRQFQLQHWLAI

[7] = biological target: Transcription factor SOX-18 (Homo sapiens, UniProt P35713); test: Inhibition of SOX18 in HUVEC assessed as reduction of SOX18-ESR1 interactions incubated for 45 mins by Alpha-screen assay; format: cell-based
Transcription factor SOX-18, sequence (P35713 whole entry): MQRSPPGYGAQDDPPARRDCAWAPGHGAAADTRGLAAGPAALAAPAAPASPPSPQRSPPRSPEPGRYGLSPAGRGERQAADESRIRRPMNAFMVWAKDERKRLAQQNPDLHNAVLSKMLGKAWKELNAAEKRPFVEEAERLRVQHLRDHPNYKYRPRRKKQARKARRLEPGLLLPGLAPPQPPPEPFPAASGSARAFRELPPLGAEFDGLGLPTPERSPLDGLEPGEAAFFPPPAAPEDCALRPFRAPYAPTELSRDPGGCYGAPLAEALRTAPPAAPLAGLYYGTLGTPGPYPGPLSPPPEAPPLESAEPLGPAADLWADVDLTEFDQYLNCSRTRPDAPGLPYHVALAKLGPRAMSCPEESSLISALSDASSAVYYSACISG

[8] = biological target: Myc proto-oncogene protein (Homo sapiens) (UniProt P01106); test: Inhibition of c-MYC in HUVEC assessed as reduction of c-MYC transcriptional activity by genome-wide RNA-seq and ChlP-seq analysis; format: cell-based
Myc proto-oncogene protein (Homo sapiens), sequence (P01106 whole entry): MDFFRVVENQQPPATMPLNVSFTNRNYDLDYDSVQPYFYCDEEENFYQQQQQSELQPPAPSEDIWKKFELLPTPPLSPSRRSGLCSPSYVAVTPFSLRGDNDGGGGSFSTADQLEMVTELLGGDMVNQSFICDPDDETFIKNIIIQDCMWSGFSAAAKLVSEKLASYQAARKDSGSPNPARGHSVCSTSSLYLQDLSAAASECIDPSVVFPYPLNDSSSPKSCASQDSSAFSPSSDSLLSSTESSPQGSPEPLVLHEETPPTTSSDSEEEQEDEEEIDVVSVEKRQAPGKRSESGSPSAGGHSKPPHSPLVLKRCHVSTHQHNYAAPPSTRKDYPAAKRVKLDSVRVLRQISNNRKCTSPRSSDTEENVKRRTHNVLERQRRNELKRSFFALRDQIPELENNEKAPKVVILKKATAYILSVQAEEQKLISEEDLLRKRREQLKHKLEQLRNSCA

[9] = biological target: Transcription factor SOX-9 (Homo sapiens) (UniProt P48436); test: Inhibition of SOX9 (unknown origin) expressed in African green monkey COS7 cells assessed as reduction in SOX9 transcriptional activity at; format: cell-based
Transcription factor SOX-9 (Homo sapiens), sequence (P48436 whole entry): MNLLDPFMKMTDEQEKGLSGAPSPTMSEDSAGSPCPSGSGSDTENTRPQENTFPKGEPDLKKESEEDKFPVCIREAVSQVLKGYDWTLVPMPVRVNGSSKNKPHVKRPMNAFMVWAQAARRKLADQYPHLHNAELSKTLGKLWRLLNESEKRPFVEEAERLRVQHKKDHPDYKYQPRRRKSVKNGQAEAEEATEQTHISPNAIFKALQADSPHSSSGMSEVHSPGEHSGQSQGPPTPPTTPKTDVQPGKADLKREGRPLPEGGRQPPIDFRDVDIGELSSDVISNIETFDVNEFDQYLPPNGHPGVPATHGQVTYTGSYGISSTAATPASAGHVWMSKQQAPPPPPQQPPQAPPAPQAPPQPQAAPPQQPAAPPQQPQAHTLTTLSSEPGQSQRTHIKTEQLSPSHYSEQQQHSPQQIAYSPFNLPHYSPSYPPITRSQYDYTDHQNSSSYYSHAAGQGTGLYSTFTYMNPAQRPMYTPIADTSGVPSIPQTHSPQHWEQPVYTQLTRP

Danio rerio = test: Induction of arterial and venous genes dys-regulation in zebrafish larvae harboring fli1 a:eGFP,-6.5kdrl:mCherry assessed as effect on efnb2a gene expression at 1.5 uM dosed starting from 16 hpf and measured at 24 and 48 hpf by qRT-PCR analysis; format: functional, organism-based
4T1.2 [10] = test: Antitumor activity against mouse 4T1.2 cells implanted in BALB/c mouse assessed as effect on tumor size at 25 mg/kg/day for 10 days; format: functional, organism-based
4T1.2 [11] = test: Inhibition of tumor induced vascular response in mouse 4T1.2 cells implanted BALB/c mouse assessed as reduction in number of endothelial cells in tumor region at 25 mg/kg/day for 10 days by ERG/EMCN-detection based immunofluorescent staining relative to control; format: functional; conditions: 4T1.2, 240 h

For `O=C(O)c1c(O)cccc1CCc1ccc2ccccc2c1`, the Activity (4T1.2 [1]) was “Dose-dependent effect”, the inhibition [2] was 12% and the inhibition [3] was 2%. For the same compound, the inhibition [4] was 13%, the inhibition [5] was 6% and the inhibition [6] was 34%. The IC50 [7] was “Not Active”, the inhibition [8] was “inactive” and the inhibition [9] was “inactive”. For the same compound, the Activity (Danio rerio) was “Active”, the Activity (4T1.2 [10]) was “inactive” and the inhibition in vivo at 25 mg/kg/day (4T1.2 [11]) was 48%.
